Assay results reported in patent US20080194024A1, “Culture of Non-Embryonic Cells at High Cell Density” (priority 2005, published 2008).
Where two headings read alike, the source gives them in different places.

Assays:
GSK-3 = settings: study cited did not specify which isoform(s) was tested; value marked a: L. Meijer et al., unpublished; read-out: IC50 GSK-α and GSK-3β, isoform not specified; cited from earlier work
CDK1-cyclin B complex = settings: cited from earlier work; for IC50: values marked a: L. Meijer et al., unpublished
CDK2 and CDK5 = settings: printed in the CDK1-cyclin B column with note (CDK2 and CDK5); cited from earlier work
Murine MAPCs [1] = test: MAPC culture with BIO, morphology (clustering); format: cell-based, mouse; settings: 0.1-2 microM BIO; from 4 days after treatment; at both cell densities
Murine MAPCs [2] = test: Quantitative RT-PCR of MAPCs treated with BIO; format: cell-based, mouse
Murine MAPCs [3] = test: Immunohistochemistry of MAPCs treated with BIO; format: cell-based, mouse
[4] = system: mouse embryonic stem (ES) cells; settings: substitutes for feeder cultures or exogenous cytokines; expression of Oct-3a, Rex-1 and Nanog; cited from earlier work
[5] = system: human embryonic stem (ES) cells; settings: substitutes for feeder cultures or exogenous cytokines; expression of Oct-3a, Rex-1 and Nanog; cited from earlier work
[6] = system: GSK-3 (α/β) mixture of isoforms; settings: cited from earlier work
GSK-3β = GSK-3β (Homo sapiens, UniProt P49841)
[7] = system: mouse mesodermal stem cell line differentiated into a myoblastic lineage; settings: Chen, S., et al. (2003); cited from earlier work
GSK-3α = GSK-3α (Homo sapiens, UniProt P49840); settings: cited from earlier work
[8] = MAPCs maintained at low density
[9] = high concentration of BIO, MAPCs maintained at low density
[10] = mixture of isoforms tested, values marked a: L. Meijer et al., unpublished

Sequence of GSK-3β (P49841 whole entry, species assumed): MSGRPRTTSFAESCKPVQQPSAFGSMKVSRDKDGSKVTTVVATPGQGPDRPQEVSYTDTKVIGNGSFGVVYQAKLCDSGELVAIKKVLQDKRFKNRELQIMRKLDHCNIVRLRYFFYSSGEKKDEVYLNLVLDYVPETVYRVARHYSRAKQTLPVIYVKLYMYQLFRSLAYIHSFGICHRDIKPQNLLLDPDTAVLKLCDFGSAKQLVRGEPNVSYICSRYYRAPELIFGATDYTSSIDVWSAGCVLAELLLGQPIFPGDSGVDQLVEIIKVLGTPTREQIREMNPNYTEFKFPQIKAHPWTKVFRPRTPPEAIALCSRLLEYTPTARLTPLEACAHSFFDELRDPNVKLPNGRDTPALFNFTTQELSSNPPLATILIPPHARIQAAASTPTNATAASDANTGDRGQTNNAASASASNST
Sequence of GSK-3α (P49840 whole entry, species assumed): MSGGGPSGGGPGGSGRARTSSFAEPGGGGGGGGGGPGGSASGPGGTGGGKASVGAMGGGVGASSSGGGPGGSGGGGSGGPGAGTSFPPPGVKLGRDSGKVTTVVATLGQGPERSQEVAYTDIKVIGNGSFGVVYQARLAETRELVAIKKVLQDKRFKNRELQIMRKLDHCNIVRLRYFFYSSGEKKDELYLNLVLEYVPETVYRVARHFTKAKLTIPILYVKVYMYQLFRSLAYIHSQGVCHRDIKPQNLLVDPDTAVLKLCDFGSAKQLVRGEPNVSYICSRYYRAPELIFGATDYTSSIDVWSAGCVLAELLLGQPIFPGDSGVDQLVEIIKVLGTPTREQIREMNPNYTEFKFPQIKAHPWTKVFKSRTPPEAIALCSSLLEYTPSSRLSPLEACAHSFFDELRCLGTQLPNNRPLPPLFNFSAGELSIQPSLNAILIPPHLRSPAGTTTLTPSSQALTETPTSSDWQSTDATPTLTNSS

In the case of `CC(=O)ON=C1C(=C2C(=O)Nc3cc(Br)ccc32)Nc2ccccc21` [6-Bromoindirubin-3′-acetoxime], the IC50 (GSK-3) is given as 10 nM and the IC50 (CDK1-cyclin B complex) is given as 63000 nM.
In the case of `COc1ccc(CNC(=O)Nc2ncc([N+](=O)[O-])s2)cc1` [ARA014418], the IC50 (CDK2 and CDK5) is given as > 100000 nM.
For `O=C1Cc2c([nH]c3ccc(Br)cc23)-c2ncccc2N1` [Azakenpaullone], the IC50 (CDK1-cyclin B complex) is listed as 2000 nM.
For `O=C1Nc2cc(Br)ccc2/C1=C1/Nc2ccccc2/C1=N\O` [BIO, 6-bromoindirubin-3′-oxime], the “clustering of MAPC” value (Murine MAPCs [1]) was “dose-dependent clustering”, the “Oct-4 mRNA levels” value (Murine MAPCs [2]; [8]) was “decreased in a BIO dose-dependent manner” and the “Rex-1 mRNA levels” value (Murine MAPCs [2]; [8]) was “decreased in a BIO dose-dependent manner”. For the same compound, the AFP levels (Murine MAPCs [2]; [9]) was “higher levels of AFP”, the Sox1 levels (Murine MAPCs [2]; [9]) was “higher levels” and the “endothelial specific genes (for example, vWF) levels” value (Murine MAPCs [2]; low concentration of BIO, MAPCs maintained at low density) was “higher levels of endothelial specific genes”. For the same compound, the “UTF1 or E-Ras expression” value (Murine MAPCs [2]; mRNA, Q-RT-PCR) was “did not affect”, the “Oct-4, β-catenin and E-cadherin protein expression in large dense MAPC clusters” value (Murine MAPCs [3]; high density (ESC densities), 1 or 2 microM BIO) was “very high levels” and the “Oct-4, β-catenin and E-cadherin protein expression in clusters” value (Murine MAPCs [3]; low-density MAPCs, 2 microM BIO) was “highly expressed”. For the same compound, the “maintenance of undifferentiated pluripotent state, mouse ES cells” value [4] was “maintaining the ES cultures in an undifferentiated pluripotent state” and the “maintenance of undifferentiated pluripotent state, human ES cells” value [5] was “maintaining the ES cultures in an undifferentiated pluripotent state”.
In the case of `[Be+2]` [Beryllium], the IC50 (GSK-3) is given as 6000 nM and the “Effect on CDK1-cyclin B complex” value (CDK1-cyclin B complex) is given as “Inhibits CDK1”.
In the case of `OCCCNc1cc(-c2ccnc(Nc3cccc(Cl)c3)n2)ccn1` [CGP60474], the IC50 (GSK-3) is given as 10 nM.
In the case of `CN1CCN(c2cnc(NCCNc3ccc([N+](=O)[O-])c(N)n3)nc2-c2ccc(Cl)cc2Cl)C(=O)C1` [CT20026], the IC50 [6, 10] is given as 4 nM.
For `CN1CC[C@H](c2c(O)cc(O)c3c(=O)cc(-c4ccccc4Cl)oc23)[C@H](O)C1` [Flavopiridol], the IC50 (GSK-3) is listed as 450 nM.
In the case of `CN(C)CCCn1cc(C2=C(c3c[nH]c4ccccc34)C(=O)NC2=O)c2ccccc21` [GF109203x, bisindolyl-maleimide I], the IC50 (GSK-3β; β isoform tested; from Meijer, L. et al. (2004); read-out: IC50 GSK-3 (β); cited from earlier work) is listed as 190 nM and the IC50 (CDK1-cyclin B complex) is listed as 2300 nM.
In the case of `Cn1cc(C2=C(c3cn(CCCSC(=N)N)c4ccccc34)C(=O)NC2=O)c2ccccc21` [Ro318220, bisindolyl-maleimide IX], the IC50 (GSK-3β; read-out: IC50 GSK-3 (β); β isoform tested; from Meijer, L. et al. (2004); cited from earlier work) is listed as 3 to 38 nM.
For `Cn1cc(C2=C(c3ccc(Cl)cc3Cl)C(=O)NC2=O)c2ccccc21` [SB216763], the IC50 (CDK1-cyclin B complex) is listed as 550 nM.
For `O=C1NC(=O)C(c2ccccc2[N+](=O)[O-])=C1Nc1ccc(O)c(Cl)c1` [SB415286], the IC50 (CDK1-cyclin B complex) is listed as 900 nM.
In the case of `COc1ccc2c(c1)/C(=C/c1cnc[nH]1)C(=O)N2` [SU9516], the IC50 (GSK-3) is given as 330 nM.
For `Cn1sc(=O)n(Cc2ccccc2)c1=O` [TDZD8], the IC50 [6, 10] is given as 7000 nM.
In the case of `Nc1cccc(-c2cc3c(Oc4cccc(O)c4)ncnc3[nH]2)c1` [TWS119], the IC50 (GSK-3β; read-out: IC50 GSK-3 (β); cited from earlier work) is given as 30 nM.
In the case of `[Zn]` [Zinc], the IC50 (GSK-3) is listed as 15000 nM and the “Effect on CDK1-cyclin B complex” value (CDK1-cyclin B complex) is listed as “No effect”.
In the case of `c1nc2nc(Nc3ccc(N4CCOCC4)cc3)nc(NC3CCCCC3)c2[nH]1` [reversine], the “effect on committed myoblast” value [7] is listed as “de-differentiate”.
In the case of Aloisine B, the IC50 (GSK-3) is listed as 750 nM and the IC50 (CDK1-cyclin B complex) is listed as 850 nM.
In the case of CHIR98014, the IC50 (GSK-3α) is given as 0.65 nM, the IC50 [6] is given as 0.58 nM and the IC50 (CDK1-cyclin B complex) is given as 3700 nM.
